Tested on: Clostridium ljungdahlii
Assay: Formation of acetic acid and ethanol from synthesis gas in CGF1 mineral medium with refeeding of cysteine (Example 3)
Format: cell-based
Procedure: For the biotransformation of hydrogen and carbon dioxide to acetic acid and ethanol the homoacetogenic bacterium Clostridium ljungdahlii was cultivated on synthesis gas with refeeding of cysteine. All cultivation steps were carried out under anaerobic conditions in pressure-resistant glass bottles that can be closed airtight with a butyl rubber stopper.
The chemolithoautotrophic cultivation was carried out in a 1 L pressure-resistant glass bottle at 37° C., 100 rpm and a ventilation rate of 3 L/h with a premixed gas with 67% H2, 33% CO2 in an open water bath shaker for 69 h till OD600nm>0.4. The gas was discharged into the medium through a sparger with a pore size of 10 μm, which was mounted in the center of the reactors. Then the cell suspension was centrifuged and the cell pellet was resuspended in fresh CGF1 mineral medium as disclosed below.
For the production phase, as many washed cells from the preculture of C. ljungdahlii as necessary for an OD600nm of 0.2 were added to 100 ml mineral medium (CGF1 medium, pH 6.5, 1.4 g/L KOH, 2 g/L (NH4)2SO4, 1 g/L KH2PO4, 1 g/L K2HPO4, 10 mg/L FeSO4 X 7 H2O, 3.8 mg/L MnSO4 X 1 H2O, 246 mg/L MgSO4×7 H2O, aerated for 30 min with a premixed gas with 67% H2 and 33% CO2). […] The cultivation was carried out in 500 mL pressure-resistant glass bottles at 37° C., 150 rpm in an open water bath shaker for 163 h which were aerated to an overpressure of 0.8 bar with a premixed gas with 67% H2, 33% CO2 one time a day. The pH was held >5.0 by intermittent additions of a 140 g/L KOH solution. During the cultivation several 5 mL samples were taken to determinate OD600nm, pH and product formation. […] The determination of the product concentrations including the L-Cysteine concentration was performed by semiquantitative ^1H-NMR spectroscopy. As an internal quantification standard sodium trimethylsilylpropionate (T(M)SP) was used.

[1] = culture A, 400 mg/L L-cysteine-hydrochloride at start, no refeed, 0 h
[2] = culture A, 400 mg/L L-cysteine-hydrochloride at start, no refeed, 18.75 h
[3] = culture A, 400 mg/L L-cysteine-hydrochloride at start, no refeed, 41.5 h
[4] = culture A, 400 mg/L L-cysteine-hydrochloride at start, no refeed, 46.75 h
[5] = culture A, 400 mg/L L-cysteine-hydrochloride at start, no refeed, 65.5 h
[6] = culture A, 400 mg/L L-cysteine-hydrochloride at start, no refeed, 69.5 h
[7] = culture A, 400 mg/L L-cysteine-hydrochloride at start, no refeed, 89.75 h
[8] = culture A, 400 mg/L L-cysteine-hydrochloride at start, no refeed, 163.5 h
[9] = culture B, 200 mg/L L-cysteine-hydrochloride at start, no refeed, 0 h
[10] = culture B, 200 mg/L L-cysteine-hydrochloride at start, no refeed, 18.75 h
[11] = culture B, 200 mg/L L-cysteine-hydrochloride at start, no refeed, 41.5 h
[12] = culture B, 200 mg/L L-cysteine-hydrochloride at start, no refeed, 46.75 h
[13] = culture B, 200 mg/L L-cysteine-hydrochloride at start, no refeed, 65.5 h
[14] = culture B, 200 mg/L L-cysteine-hydrochloride at start, no refeed, 69.5 h
[15] = culture B, 200 mg/L L-cysteine-hydrochloride at start, no refeed, 89.75 h
[16] = culture B, 200 mg/L L-cysteine-hydrochloride at start, no refeed, 163.5 h
[17] = culture C, 200 mg/L L-cysteine-hydrochloride at start, re-fed 200 mg/L after 18, 41, 65, 89 h, 0 h
[18] = culture C, 200 mg/L L-cysteine-hydrochloride at start, re-fed 200 mg/L after 18, 41, 65, 89 h, 18.75 h
[19] = culture C, 200 mg/L L-cysteine-hydrochloride at start, re-fed 200 mg/L after 18, 41, 65, 89 h, 41.5 h
[20] = culture C, 200 mg/L L-cysteine-hydrochloride at start, re-fed 200 mg/L after 18, 41, 65, 89 h, 46.75 h
[21] = culture C, 200 mg/L L-cysteine-hydrochloride at start, re-fed 200 mg/L after 18, 41, 65, 89 h, 65.5 h
[22] = culture C, 200 mg/L L-cysteine-hydrochloride at start, re-fed 200 mg/L after 18, 41, 65, 89 h, 69.5 h
[23] = culture C, 200 mg/L L-cysteine-hydrochloride at start, re-fed 200 mg/L after 18, 41, 65, 89 h, 89.75 h
[24] = culture C, 200 mg/L L-cysteine-hydrochloride at start, re-fed 200 mg/L after 18, 41, 65, 89 h, 95.5 h
[25] = culture C, 200 mg/L L-cysteine-hydrochloride at start, re-fed 200 mg/L after 18, 41, 65, 89 h, 163.5 h

For `Cl.N[C@@H](CS)C(=O)O` [L-Cysteine-HCl, L-cysteine hydrochloride], the Acetate [1] was 34.0 mg/L, the Ethanol [1] was 2.0 mg/L and the “OD (600 nm)” value [1] was 0.206. For the same molecule, the Acetate [2] was 1400.0 mg/L, the Ethanol [2] was 60.0 mg/L and the “OD (600 nm)” value [2] was 0.232. For the same molecule, the Acetate [3] was 2550 mg/L, the Ethanol [3] was 420 mg/L and the “OD (600 nm)” value [3] was 0.293. For the same molecule, the Acetate [4] was 2700 mg/L, the Ethanol [4] was 480 mg/L and the “OD (600 nm)” value [4] was 0.281. For the same molecule, the Acetate [5] was 3500 mg/L, the Ethanol [5] was 580 mg/L and the “OD (600 nm)” value [5] was 0.324. For the same molecule, the Acetate [6] was 3700 mg/L, the Ethanol [6] was 650 mg/L and the “OD (600 nm)” value [6] was 0.366. For the same molecule, the Ethanol [7] was 580.0 mg/L, the “OD (600 nm)” value [7] was 0.324 and the Acetate [8] was 6100.0 mg/L. The Ethanol [8] was 670.0 mg/L, the “OD (600 nm)” value [8] was 0.339 and the Acetate [9] was 35.0 mg/L. The Ethanol [9] was 1.9 mg/L, the “OD (600 nm)” value [9] was 0.197 and the Acetate [10] was 1400.0 mg/L. For the same molecule, the Ethanol [10] was 100.0 mg/L, the “OD (600 nm)” value [10] was 0.261 and the Acetate [11] was 2150 mg/L. For the same molecule, the Ethanol [11] was 580 mg/L, the “OD (600 nm)” value [11] was 0.279 and the Acetate [12] was 2200 mg/L. The Ethanol [12] was 630 mg/L, the “OD (600 nm)” value [12] was 0.269 and the Acetate [13] was 2200 mg/L. For the same molecule, the Ethanol [13] was 600 mg/L, the “OD (600 nm)” value [13] was 0.271 and the Acetate [14] was 2200 mg/L. For the same molecule, the Ethanol [14] was 590 mg/L, the “OD (600 nm)” value [14] was 0.259 and the Acetate [15] was 2350.0 mg/L. The Ethanol [15] was 560.0 mg/L, the “OD (600 nm)” value [15] was 0.241 and the Acetate [16] was 2550.0 mg/L. For the same molecule, the Ethanol [16] was 570.0 mg/L, the “OD (600 nm)” value [16] was 0.237 and the cell growth (culture C (re-fed) compared with cultures A and B) was “stronger cell growth”. The “concentrations of acetate and ethanol” value (culture C (re-fed) compared with cultures A and B, production phase) was “increased more”, the Acetate [17] was 27.0 mg/L and the Ethanol [17] was 2.0 mg/L. For the same molecule, the “OD (600 nm)” value [17] was 0.209, the Acetate [18] was 1400.0 mg/L and the Ethanol [18] was 85.0 mg/L. The “OD (600 nm)” value [18] was 0.245, the Acetate [19] was 3000 mg/L and the Ethanol [19] was 510 mg/L. For the same molecule, the “OD (600 nm)” value [19] was 0.339, the Acetate [20] was 3250 mg/L and the Ethanol [20] was 580 mg/L. For the same molecule, the “OD (600 nm)” value [20] was 0.335, the Ethanol [21] was 790 mg/L and the “OD (600 nm)” value [21] was 0.399. For the same molecule, the Ethanol [22] was 860 mg/L, the “OD (600 nm)” value [22] was 0.392 and the Acetate [23] was 5000.0 mg/L. For the same molecule, the Ethanol [23] was 810.0 mg/L, the “OD (600 nm)” value [23] was 0.431 and the Acetate [24] was 5600.0 mg/L. The Ethanol [24] was 880.0 mg/L, the “OD (600 nm)” value [24] was 0.434 and the Acetate [25] was 7700.0 mg/L. For the same molecule, the Ethanol [25] was 960.0 mg/L and the “OD (600 nm)” value [25] was 0.481.

Reference: patent US20160177259A1, “[…]” (Evonik Degussa GmbH, priority 2014, published 2016)
